Measurements: publication PMC8245078, “Development of novel benzofuran-isatin conjugates as potential antiproliferative agents with apoptosis inducing mechanism in Colon cancer” (Journal of Enzyme Inhibition and Medicinal Chemistry, 2021)

Tests used:
[1] = tested on: SW-620 colorectal cancer cell line; experiment: MTT cell viability assay; assay type: cell-based, human; conditions: for inhibition of SW-620 cancer cells viability: 10 µM, 24 h, MTT
Protocol: In the present investigation a new set of benzofuran–isatin hybrids (5a–e and 7a–i) was synthesised to be evaluated for their potential anticancer activity towards two human colorectal cancer cell lines, SW-620 and HT-29. […] Both, SW-620 and HT-29 cells were treated with 10 µM of each compound for 24 h and the percent cell viability was calculated using MTT assay.
For this reason, compounds 5a and 5d were pursued for further studies. Starting with determination of IC50s and cytotoxic selectivity studies. Serial concentrations of compounds 5a and 5d were used to examine their impact on cell viability using MTT protocol. Results of concentration vs percent viability were charted, and the IC50 was calculated for SW-620 and HT-29 cell lines using Graph Pad prism 8 (Figure 4). […]
[(Ti-Tz)/Tz] x 100 for concentrations for which Ti<Tz […]
SW620 and HT29 colorectal cancer cell lines and HFF-1 fibroblast (ATCC, Rockville, USA) were used. HT29 cells were cultured and maintained in Dulbecco’s Modified Eagles Medium (DMEM) (GIBCO, by Thermo Fischer Scientific, NY, USA) supplemented with 10% fetal bovine serum (FBS), 100 units/mL penicillin, and 100 μg streptomycin. SW620 and HFF-1 cells were cultured in Roswell Park Memorial Institute medium (RPMI-1640) (GIBCO, by Thermo scientific, NY, USA) supplemented with 10% FBS and 1% penicillin and streptomycin (Napolitano et al., 2015). All cultures were incubated at 37 °C and humidified atmosphere of 5% […]
2.3. Cell Viability Assay
The cytotoxicity effect of compounds on the colorectal cancer cell lines, SW620 and HT29 in addition to the normal human fibroblasts was measured by MTT (3-(4, 5-dimethylthiazol-2-yl)-2,5-diphenyltetrazolium bromide) (Sigma-Aldrich, St. Louis, MO, USA) as previously described. Briefly, cells were seeded in 96 well culture plates at 5000/well for HT29 and 10,000/well for SW620 for 24 h. Cells were then incubated with different compounds from WAG1 series (1-15) 24h at 37 °C and humidified 5% CO2 incubator. Freshly prepared 10 μl of 3-(4,5-dimethylthiazol-2-yl)-2,5-diphenyltetrazolium bromide (MTT 5 mM) solution were added to the cells and further incubated for 2 h. Thereafter, 100 μl of dimethyl sulfoxide (DMSO) were added in each well and the crystals were dissolved through careful pipetting. In certain experiment, cells were treated different concentration of 5FU for 72 h. The absorbance of the product was measured at 540 nm using a Synergy™ 2 multi-mode microplate reader (Biotech, VA, USA). The experiments were performed in triplicate for each condition. […]
The total protein concentration was evaluated by the colorimetric
Bradford protein assay (BIO-RAD inc, CA, USA) at 595 nm absorbance. Lysates were loaded in […]

[2] = tested on: anti-apoptotic Bcl2 protein in SW-620 cells; experiment: Western blot analysis of Bcl2; assay type: cell-based, human; conditions: SW-620, 5 μM and 10 μM, 24 h
From the text: To further examine the possible mechanism of apoptosis, the effect of compounds 5a and 5d on certain apoptosis-related proteins was studied. Bcl2 protein as a critical component of the mitochondrial apoptotic pathway is reported to be overexpressed in numerous tumours causing survival of cancer cell[62]. In addition, it was reported that caspase activation during apoptosis leads to proteolytic cleavage of several cellular substrates participating in DNA reparation including [poly (ADP-ribose) polymerase][63]. Therefore, the impact of compounds 5a and 5d on the anti-apoptotic protein Bcl2 and the level of cleaved PARP was examined (Figure 7). […]
2.5. Western Blot Analysis
All cells were seeded in a 100 mm dish (1 × 10^6 cells per dish) in 5% CO2 at 37 °C in the appropriate culture medium. The cells with around 50% confluency were treated with compounds for 24h. At the experiment day, cells were washed with 1x PBS, harvested and lysed in RIPA lysis buffer, combined with protease inhibitors, (Sigma-Aldrich, St. Louis, MO, USA) as described previously (39)). The total protein concentration was evaluated by the colorimetric Bradford protein assay (BIO-RAD inc, CA, USA) at 595 nm absorbance. Lysates were loaded in […]
equal concentration and separated by sodium dodecyl sulfate-polyacrylamide gel electrophoresis (SDS-PAGE) and then transferred to a nitrocellulose membrane by semi-dry. […]

[3] = Homo sapiens, SW-620, SW-620, MTT

Structure (SMILES)	inhibition of SW-620 cancer cells viability [1]	IC50 [1, 3] [µM]	IC50 ([1]; SW-620, MTT) [µM]	Bcl2 protein expression (Western blot, in words) [2]
Cc1c(C(=O)N/N=C2\C(=O)Nc3ccccc32)oc2ccccc12 [Compound 5a]	46%	8.7	9.4	dose dependent inhibition
COc1ccc2c(c1)/C(=N/NC(=O)c1oc3ccccc3c1C)C(=O)N2 [Compound 5d]	about 52%	6.5	9.8	significant inhibition
